The test deals with T1, PAR1 (Homo sapiens, UniProt P25116).
T1 construct: endogenous in cells; host or cells: washed platelets from platelet-rich plasma of healthy volunteers
T1 sequence (P25116 22-425): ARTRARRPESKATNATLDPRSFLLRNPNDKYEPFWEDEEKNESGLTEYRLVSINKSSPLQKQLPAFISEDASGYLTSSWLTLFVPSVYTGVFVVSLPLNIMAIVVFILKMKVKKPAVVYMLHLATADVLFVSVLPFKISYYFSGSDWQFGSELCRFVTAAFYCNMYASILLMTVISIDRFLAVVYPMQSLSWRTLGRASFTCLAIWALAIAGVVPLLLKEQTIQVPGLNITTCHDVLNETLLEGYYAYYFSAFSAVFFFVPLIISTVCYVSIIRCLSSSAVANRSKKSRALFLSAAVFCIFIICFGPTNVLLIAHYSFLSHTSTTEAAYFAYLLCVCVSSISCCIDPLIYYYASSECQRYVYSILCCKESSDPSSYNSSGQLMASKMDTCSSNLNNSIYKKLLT
In words: Inhibition of PAR1-mediated platelet aggregation induced by TRAP (96-well format). Conditions: washed platelets from blood of healthy volunteers; agonist TRAP (thrombin-receptor activating peptide) solution 70-100 μM; AUC at 650 nm, 37° C., 20 minutes. Format: cell-based. The procedure:
PAR 1 determination method: Inhibition of PAR1-mediated platelet aggregation The pharmacological testing of the substances was carried out in the platelet aggregation induced by TRAP (thrombin-receptor activating peptide) in a 96-well format. To this end, blood from healthy volunteers was taken in 20 ml syringes into which 2 ml of 3.13% strength sodium citrate solution was initially introduced. After a 20-minute centrifugation at 150×g, the platelet-rich plasma (PRP) was separated off and treated with 1 μl of PGE1 solution (500 μg/ml in ethanol)/ml of PRP. After incubation at RT for 5 minutes, this was centrifuged at 120×g for 15 minutes in order to remove the leucocytes. The leucocyte-free PRP was transferred to 15 ml PP tubes in 5 ml portions and centrifuged off at 360×g for 15 minutes in order to pellet the platelets. Subsequently, the plasma was decanted and the platelet sediment from 5 ml of PRP was resuspended in 1 ml of Tyrode (120 mM NaCl, 2.6 mM KCl, 12 mM NaHCO3, 0.39 mM NaH2PO4×H2O, 10 mM HEPES, 0.35% BSA, 5.5 mM glucose, pH 7.4) and adjusted with Tyrode to a platelet count of 3×10^5/microliter (μl). 13 ml of this cell suspension were then treated with 866 μl of 10 mM CaCl2 solution and 120 μl thereof per well were pipetted to a 96-well plate, in which 15 μl of the substance to be tested were initially introduced. After incubation in the dark at RT for 30 minutes, 15 μl of a TRAP solution (70-100 μM) were added as the agonist and kinetics were recorded with shaking at 37° C. for 20 minutes in a SpectraMax 340 at 650 nm. The areas under the curves of negative control (Tyrode/DMSO) and positive control (15 μl of agonist/DMSO) were calculated and the difference was defined as the 100% value. The substances to be tested were pipetted as a dilution series in a duplicate determination, likewise the AUC of each substance concentration was determined and the % inhibition of the AUC against the control was calculated. By means of the % inhibition, the IC50 was calculated with the aid of a nonlinear regression analysis according to the 4 parameter equation.
`N=c1n(CC(=O)c2cccc(S(F)(F)(F)(F)F)c2)cc2ccccn12` [Example 2, 2-(3-Iminoimidazo[1,5-a]pyridin-2-yl)-1-(3-pentafluorosulfanylphenyl)ethanone] had an IC50 of 13000 nM.
Molecule `CC(C)(C)c1cc(C(=O)Cn2c(C3CC3)c3ccccn3c2=N)cc(C(C)(C)C)c1O` [Example 3, 2-(1-Cyclopropyl-3-iminoimidazo[1,5-a]pyridin-2-yl)-1-(3,5-di-tert-butyl-4-hydroxyphenyl)ethanone] displayed an IC50 of 850 nM.
For `CC(C)(C)c1cc(C(=O)Cn2cc3cc(C(F)(F)F)ccn3c2=N)cc(C(C)(C)C)c1O` [Example 6b, 1-(3,5-Di-tert-butyl-4-hydroxyphenyl)-2-(3-imino-7-trifluoromethylimidazo[1,5-a]pyridin-2-yl)ethanone], the IC50 stood at 730 nM.
Under `COC(=O)c1ccc2cn(CC(=O)c3cc(N4CCOCC4)c(OC)c(C(C)(C)C)c3)c(=N)n2c1` [Example 8, Methyl 2-[2-(3-tert-butyl-4-methoxy-5-morpholin-4-ylphenyl)-2-oxoethyl]-3-imino-2,3-dihydroimidazo[1,5-a]pyridine-6-carboxylate] stands 510 nM; under `CCOc1cc2cn(CC(=O)c3cc4c(c(C(C)(C)C)c3)OCCN4C)c(=N)n2cc1C(=O)NC` [Example 12, 2-[2-(8-tert-Butyl-4-methyl-3,4-dihydro-2H-benzo[1,4]oxazin-6-yl)-2-oxoethyl]-7-ethoxy-3-imino-2,3-dihydroimidazo[1,5-a]pyridine-6-carboxylic acid methylamide], 20 nM.
Turning to `CCOc1ccc2n(c1=O)C(=N)N(CC(=O)c1cc(N3CCOCC3)c(OC)c(C(C)(C)C)c1)C2` [Example 18, 2-[2-(3-tert-Butyl-4-methoxy-5-morpholin-4-ylphenyl)-2-oxoethyl]-6-ethoxy-3-imino-2,3-dihydro-1H-imidazo[1,5-a]pyridin-5-one], the IC50 was 9500 nM.
For `CCOc1cc2cn(CC(=O)c3cc(N4CCOCC4)c(OC)c(C(C)(C)C)c3)c(=N)n2cc1C(=O)NC` [Example 19, 2-[2-(3-tert-Butyl-4-methoxy-5-morpholin-4-ylphenyl)-2-oxoethyl]-7-ethoxy-3-imino-2,3-dihydroimidazo[1,5-a]pyridine-6-carboxylic acid Methylamide], the IC50 amounted to 900 nM. This IC50 lies about 11-fold lower than the previous one.
In turn, `CCOC(=O)c1cc(OC)n2c(=N)n(CC(=O)c3cc(N4CCOCC4)c(OC)c(C(C)(C)C)c3)cc2c1` [Example 20, Ethyl 2-[2-(3-tert-butyl-4-methoxy-5-morpholin-4-ylphenyl)-2-oxoethyl]-3-imino-5-methoxy-2,3-dihydroimidazo[1,5-a]pyridine-7-carboxylate] came in with an IC50 of 70 nM.
